In patent publication US20230002367A1, “BIFUNCTIONAL COMPOUNDS” (Hoffmann-La Roche Inc., priority 2019, published 2023):

Target: T1, SMARCA2 (Homo sapiens, UniProt P51531)
T1 construct: endogenous in cells
Assay: SMARCA2 HiBiT degradation assay (cellular)
Format: cell-based
Conditions: for Emax: A549, Emax = amount of residual protein remaining in the cell following compound treatment; for DC50: SMARCA2 HiBiT cells, luminescence readout, 11-point titration from 10 μM, 6 hours or 16 hours, read-out: HiBit A549 SMARCA2 IP

T1 sequence (P51531 whole entry): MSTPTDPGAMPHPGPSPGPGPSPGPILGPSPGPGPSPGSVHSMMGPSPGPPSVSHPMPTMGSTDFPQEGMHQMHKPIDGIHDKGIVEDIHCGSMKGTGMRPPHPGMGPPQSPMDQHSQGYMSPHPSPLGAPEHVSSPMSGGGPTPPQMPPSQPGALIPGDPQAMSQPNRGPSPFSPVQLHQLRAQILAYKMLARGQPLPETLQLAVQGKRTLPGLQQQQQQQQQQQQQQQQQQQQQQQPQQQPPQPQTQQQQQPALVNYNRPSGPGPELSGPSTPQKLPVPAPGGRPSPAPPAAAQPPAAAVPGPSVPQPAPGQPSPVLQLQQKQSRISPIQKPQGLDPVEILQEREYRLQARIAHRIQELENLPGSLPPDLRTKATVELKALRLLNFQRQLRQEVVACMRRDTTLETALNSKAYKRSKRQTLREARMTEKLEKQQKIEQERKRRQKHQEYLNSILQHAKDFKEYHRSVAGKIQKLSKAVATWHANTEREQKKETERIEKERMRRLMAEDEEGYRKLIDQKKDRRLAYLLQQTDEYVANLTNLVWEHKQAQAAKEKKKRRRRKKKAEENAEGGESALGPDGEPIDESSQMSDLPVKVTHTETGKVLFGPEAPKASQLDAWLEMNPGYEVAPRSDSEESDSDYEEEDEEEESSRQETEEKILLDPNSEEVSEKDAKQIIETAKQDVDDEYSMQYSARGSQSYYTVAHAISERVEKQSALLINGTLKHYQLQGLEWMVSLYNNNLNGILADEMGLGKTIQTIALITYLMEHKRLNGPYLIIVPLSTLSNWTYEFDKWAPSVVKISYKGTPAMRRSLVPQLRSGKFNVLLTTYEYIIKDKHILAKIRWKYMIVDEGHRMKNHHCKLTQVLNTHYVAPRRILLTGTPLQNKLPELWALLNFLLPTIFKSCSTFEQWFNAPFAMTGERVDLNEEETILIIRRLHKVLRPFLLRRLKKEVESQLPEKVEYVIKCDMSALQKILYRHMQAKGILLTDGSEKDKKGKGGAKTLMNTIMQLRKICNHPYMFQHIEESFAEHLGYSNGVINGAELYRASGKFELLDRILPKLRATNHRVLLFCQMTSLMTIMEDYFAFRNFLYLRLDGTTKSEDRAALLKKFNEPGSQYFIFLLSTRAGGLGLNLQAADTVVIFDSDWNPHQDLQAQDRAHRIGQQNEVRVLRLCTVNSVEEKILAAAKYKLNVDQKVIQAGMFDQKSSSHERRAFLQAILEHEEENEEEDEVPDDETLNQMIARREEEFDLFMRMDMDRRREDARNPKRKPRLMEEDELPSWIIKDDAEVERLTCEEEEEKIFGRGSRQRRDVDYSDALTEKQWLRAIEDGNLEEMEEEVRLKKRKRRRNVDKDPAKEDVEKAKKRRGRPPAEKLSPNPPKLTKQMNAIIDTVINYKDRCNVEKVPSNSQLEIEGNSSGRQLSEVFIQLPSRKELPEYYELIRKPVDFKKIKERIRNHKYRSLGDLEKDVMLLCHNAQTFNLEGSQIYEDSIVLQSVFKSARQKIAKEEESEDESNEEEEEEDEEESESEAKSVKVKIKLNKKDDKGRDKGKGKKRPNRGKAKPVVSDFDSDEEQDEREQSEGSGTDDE

Compound | Emax [%] | DC50 [nM]
Cc1ncsc1-c1ccc(CNC(=O)[C@@H]2C[C@@H](O)CN2C(=O)[C@@H](NC(=O)CCCCCCCCCC(=O)N2CCN(C(=O)c3cccc(CN4C5CCC4CN(c4cc(-c6ccccc6O)nnc4N)C5)c3)CC2)C(C)(C)C)cc1 [Example 18, (2S,4R)-1-[(2S)-2-[[11-[4-[3-[[3-[3-amino-6-(2-hydroxyphenyl)pyridazin-4-yl]-3,8-diazabicyclo[3.2.1]octan-8-yl]methyl]benzoyl]piperazin-1-yl]-11-oxo-undecanoyl]amino]-3,3-dimethyl-butanoyl]-4-hydroxy-N-[[4-(4-methylthiazol-5-yl)phenyl]methyl]pyrrolidine-2-carboxamide] | 63 | 848
Cc1ncsc1-c1ccc(CNC(=O)[C@@H]2C[C@@H](O)CN2C(=O)[C@@H](NC(=O)CCCCCCCC(=O)N2CCN(CCOc3cccc(N4C5CCC4CN(c4cc(-c6ccccc6O)nnc4N)C5)c3)CC2)C(C)(C)C)cc1 [Example 2, (2S,4R)-1-[(2S)-2-[[9-[4-[2-[3-[3-[3-amino-6-(2-hydroxyphenyl)pyridazin-4-yl]-3,8-diazabicyclo[3.2.1]octan-8-yl]phenoxy]ethyl]piperazin-1-yl]-9-oxo-nonanoyl]amino]-3,3-dimethyl-butanoyl]-4-hydroxy-N-[[4-(4-methylthiazol-5-yl)phenyl]methyl]pyrrolidine-2-carboxamide] | 38 | 478
Cc1ncsc1-c1ccc([C@H](C)NC(=O)[C@@H]2C[C@@H](O)CN2C(=O)[C@@H](NC(=O)CCCCCCCCCNC(=O)C(c2ccccc2)n2cc(-c3cc(-c4ccccc4O)nnc3N)cn2)C(C)(C)C)cc1 (mixture of isomers) [Example 88, rac-(2S,4R)-4-hydroxy-1-[rac-(2S)-2-[10-[[2-[4-[3-amino-6-(2-hydroxyphenyl)pyridazin-4-yl]pyrazol-1-yl]-2-phenyl-acetyl]amino]decanoylamino]-3,3-dimethyl-butanoyl]-N-[rac-(1S)-1-[4-(4-methylthiazol-5-yl)phenyl]ethyl]pyrrolidine-2-carboxamide] | 29 | 423
Cc1ncsc1-c1ccc(CNC(=O)[C@@H]2C[C@@H](O)CN2C(=O)[C@@H](NC(=O)CCCCCCCCC(=O)N2CCN(CCOc3cccc(N4CCOC5(CCN(c6cc(-c7ccccc7O)nnc6N)CC5)C4)c3)CC2)C(C)(C)C)cc1 [Example 52, (2S,4R)-1-[(2S)-2-[[10-[4-[2-[3-[9-[3-amino-6-(2-hydroxyphenyl)pyridazin-4-yl]-1-oxa-4,9-diazaspiro[5.5]undecan-4-yl]phenoxy]ethyl]piperazin-1-yl]-10-oxo-decanoyl]amino]-3,3-dimethyl-butanoyl]-4-hydroxy-N-[[4-(4-methylthiazol-5-yl)phenyl]methyl]pyrrolidine-2-carboxamide] | 56 | 533
Cc1ncsc1-c1ccc(CNC(=O)[C@@H]2C[C@@H](O)CN2C(=O)[C@@H](NC(=O)CCCCCCCCC(=O)N2CCN(CCOc3ccc(N4C5CCC4CN(c4cc(-c6ccccc6O)nnc4N)C5)cc3)CC2)C(C)(C)C)cc1 [Example 68, (2S,4R)-1-[(2S)-2-[[10-[4-[2-[4-[3-[3-amino-6-(2-hydroxyphenyl)pyridazin-4-yl]-3,8-diazabicyclo[3.2.1]octan-8-yl]phenoxy]ethyl]piperazin-1-yl]-10-oxo-decanoyl]amino]-3,3-dimethyl-butanoyl]-4-hydroxy-N-[[4-(4-methylthiazol-5-yl)phenyl]methyl]pyrrolidine-2-carboxamide] | 50 | 2320
Cc1ncsc1-c1ccc(CNC(=O)[C@@H]2C[C@H](O)CN2C(=O)[C@@H](NC(=O)CCCCCCCC(=O)N2CCC(Cc3cccc(N4C5CCC4CN(c4cc(-c6ccccc6O)nnc4N)C5)c3)CC2)C(C)(C)C)cc1 [Example 13, (2S,4S)-1-[(2S)-2-[[9-[4-[[3-[3-[3-amino-6-(2-hydroxyphenyl)pyridazin-4-yl]-3,8-diazabicyclo[3.2.1]octan-8-yl]phenyl]methyl]-1-piperidyl]-9-oxo-nonanoyl]amino]-3,3-dimethyl-butanoyl]-4-hydroxy-N-[[4-(4-methylthiazol-5-yl)phenyl]methyl]pyrrolidine-2-carboxamide] | 28 | 954
Cc1ncsc1-c1ccc(CNC(=O)[C@@H]2C[C@@H](O)CN2C(=O)[C@@H](NC(=O)CCCCCCCCC(=O)N2C3CCC2CN(c2cc(-c4ccccc4O)nnc2N)C3)C(C)(C)C)cc1 [Example 5, (2S,4R)-1-[(2S)-2-[[10-[3-[3-amino-6-(2-hydroxyphenyl)pyridazin-4-yl]-3,8-diazabicyclo[3.2.1]octan-8-yl]-10-oxo-decanoyl]amino]-3,3-dimethyl-butanoyl]-4-hydroxy-N-[[4-(4-methylthiazol-5-yl)phenyl]methyl]pyrrolidine-2-carboxamide] | 31 | 2510
Cc1ncsc1-c1ccc(CNC(=O)[C@@H]2C[C@@H](O)CN2C(=O)[C@@H](NC(=O)CCCCCCCCC(=O)N(C)CCNC(=O)C2CN(c3cc(-c4ccccc4O)nnc3N)CCN2c2ccccc2)C(C)(C)C)cc1 (mixture of isomers) [Example 98, N′-[2-[[4-[3-amino-6-(2-hydroxyphenyl)pyridazin-4-yl]-1-phenyl-piperazine-2-carbonyl]amino]ethyl]-N′-methyl-N-[rac-(1S)-2,2-dimethyl-1-[rac-(2S,4R)-4-hydroxy-2-[[4-(4-methylthiazol-5-yl)phenyl]methylcarbamoyl]pyrrolidine-1-carbonyl]propyl]decanediamide] | 28 | 1650
Cc1ncsc1-c1ccc([C@H](C)NC(=O)[C@@H]2C[C@@H](O)CN2C(=O)[C@@H](NC(=O)CCCCCC(=O)N2CCN(CCOc3cccc(N4CCCC(Oc5cc(-c6ccccc6O)nnc5N)C4)c3)CC2)C(C)(C)C)cc1 (mixture of isomers) [Example 70, rac-(2S,4R)-4-hydroxy-1-[rac-(2S)-2-[[7-[4-[2-[3-[3-[3-amino-6-(2-hydroxyphenyl)pyridazin-4-yl]oxy-1-piperidyl]phenoxy]ethyl]piperazin-1-yl]-7-oxo-heptanoyl]amino]-3,3-dimethyl-butanoyl]-N-[rac-(1S)-1-[4-(4-methylthiazol-5-yl)phenyl]ethyl]pyrrolidine-2-carboxamide] | 50 | 1180
Cc1ncsc1-c1ccc(CNC(=O)[C@@H]2C[C@@H](O)CN2C(=O)[C@@H](NC(=O)CCCCCCCCCCC(=O)N2C3CCC2CN(c2cc(-c4ccccc4O)nnc2N)C3)C(C)(C)C)cc1 [Example 84, (2S,4R)-1-[(2S)-2-[[12-[3-[3-Amino-6-(2-hydroxyphenyl)pyridazin-4-yl]-3,8-diazabicyclo[3.2.1]octan-8-yl]-12-oxo-dodecanoyl]amino]-3,3-dimethyl-butanoyl]-4-hydroxy-N-[[4-(4-methylthiazol-5-yl)phenyl]methyl]pyrrolidine-2-carboxamide] | 38 | 902
Cc1ncsc1-c1ccc([C@H](C)NC(=O)[C@@H]2C[C@@H](O)CN2C(=O)[C@@H](NC(=O)CCCCCC(=O)N(C)CC(COc2cc(-c3ccccc3O)nnc2N)c2ccccc2)C(C)(C)C)cc1 (mixture of isomers) [Example 21, N′-[3-[3-amino-6-(2-hydroxyphenyl)pyridazin-4-yl]oxy-2-phenyl-propyl]-N′-methyl-N-[rac-(1S)-2,2-dimethyl-1-[rac-(2S,4R)-4-hydroxy-2-[[rac-(1S)-1-[4-(4-methylthiazol-5-yl)phenyl]ethyl]carbamoyl]pyrrolidine-1-carbonyl]propyl]heptanediamide] | 19 | 1010
